Test results published in patent publication US20220251036A1, “DIFLUOROHALOALLYLAMINE SULFONE DERIVATIVE INHIBITORS OF LYSYL OXIDASES, METHODS OF PREPARATION, AND USES THEREOF” (PHARMAXIS LTD., priority 2019, published 2022).
pIC50: −log10 of the molar value. Where two headings read alike, the source gives them in different places.

Experiments:
Format in all cases: biochemical
recombinant human MAO-A = molecular target: T1, recombinant human MAO-A (Homo sapiens, UniProt P21397); test: MAO-A inhibition; conditions: 2 hours incubation, tyramine 100 μM
T1 construct: purchased Sigma Aldrich
T1 sequence (P21397 1-527): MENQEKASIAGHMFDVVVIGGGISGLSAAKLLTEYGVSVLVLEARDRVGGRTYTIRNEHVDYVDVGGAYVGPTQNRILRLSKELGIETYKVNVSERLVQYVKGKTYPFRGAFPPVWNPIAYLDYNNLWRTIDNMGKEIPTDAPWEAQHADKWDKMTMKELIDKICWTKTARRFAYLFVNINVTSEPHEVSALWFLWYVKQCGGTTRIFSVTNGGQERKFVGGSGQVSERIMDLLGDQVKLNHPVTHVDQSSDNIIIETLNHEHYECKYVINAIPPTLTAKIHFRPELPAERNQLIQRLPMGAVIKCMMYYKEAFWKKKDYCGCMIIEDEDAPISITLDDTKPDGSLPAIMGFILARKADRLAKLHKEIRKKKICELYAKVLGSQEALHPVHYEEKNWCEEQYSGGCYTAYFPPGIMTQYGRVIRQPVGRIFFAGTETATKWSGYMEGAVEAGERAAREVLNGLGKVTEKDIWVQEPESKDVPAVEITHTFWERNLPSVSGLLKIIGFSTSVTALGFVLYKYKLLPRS
Protocol: The specificity of the compounds of this invention was tested by determining their ability to inhibit MAO-A activity in vitro, using recombinant human MAO-A (0.003 mg/mL; Sigma Aldrich). The assay was performed in a similar way as for human SSAO/VAP-1 (Example 8) except, the incubation with the test compounds was extended to 2 hours, and the substrate tyramine was used at 100 μM in place of benzylamine.

Human recombinant LOXL4 = molecular target: T2, Human recombinant LOXL4 (Homo sapiens, UniProt Q96JB6); test: LOXL4 inhibition, Amplex Red oxidation assay
T2 sequence (Q96JB6 25-756): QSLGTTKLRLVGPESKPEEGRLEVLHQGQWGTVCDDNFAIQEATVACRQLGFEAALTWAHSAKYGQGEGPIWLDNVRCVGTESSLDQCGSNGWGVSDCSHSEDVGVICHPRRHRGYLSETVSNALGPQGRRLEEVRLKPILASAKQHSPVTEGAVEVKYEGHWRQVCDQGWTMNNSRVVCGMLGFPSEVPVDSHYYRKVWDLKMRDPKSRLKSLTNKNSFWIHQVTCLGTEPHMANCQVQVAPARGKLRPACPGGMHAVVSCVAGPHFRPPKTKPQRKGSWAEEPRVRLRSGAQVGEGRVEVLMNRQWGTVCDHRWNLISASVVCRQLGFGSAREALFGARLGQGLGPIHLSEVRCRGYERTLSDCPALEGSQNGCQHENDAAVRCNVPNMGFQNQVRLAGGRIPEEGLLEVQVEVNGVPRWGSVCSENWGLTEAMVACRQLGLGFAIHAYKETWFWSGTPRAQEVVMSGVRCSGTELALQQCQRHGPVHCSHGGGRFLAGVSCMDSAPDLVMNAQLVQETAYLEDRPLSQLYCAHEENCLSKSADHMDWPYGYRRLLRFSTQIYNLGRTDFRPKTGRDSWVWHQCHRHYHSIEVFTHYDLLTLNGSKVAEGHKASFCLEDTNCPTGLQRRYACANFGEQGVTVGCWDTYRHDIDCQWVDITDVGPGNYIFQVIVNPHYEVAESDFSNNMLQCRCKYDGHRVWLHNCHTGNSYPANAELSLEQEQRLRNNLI
Protocol: (§1) LOX and LOXL protein family members can be acquired as recombinant active proteins from commercial sources, or extracted from animal tissues like bovine aorta, tendons, pig skin; or prepared from cell cultures. […] The assay was developed using either 384 or 96 well format. Briefly, in a standard black, clear bottom 384 well plate assay 25 μL of a dilution of any of the isoenzymes and orthologues in 1.2 M urea, 50 mM sodium borate buffer (pH 8.2) were added into each well in the presence of 1 μM mofegiline and 0.5 mM pargyline (to inhibit SSAO and MAO-B and MAO-A, respectively; not necessary if the enzyme is from a recombinant or purified form). Test compounds were dissolved in DMSO and tested in a Concentration Response Curve (CRC) with 11 data points, typically in the micromolar or nanomolar range after incubation with the enzyme for 30 min at 37° C. 25 μL of a reaction mixture containing twice the KM concentration of putrescine (Sigma Aldrich, e.g. 20 mM for LOX and LOXL1 or 10 mM for LOXL2 and 4 mM for LOXL3 and LOXL4), 120 μM Amplex Red (Sigma Aldrich) and 1.5 U/mL horseradish peroxidase (Sigma Aldrich) prepared in 1.2 M urea, 50 mM sodium borate buffer (pH 8.2) were then added to the corresponding wells. The above volumes were doubled in the case of 96 wells plate. The fluorescence (RFU) was read every 2.5 min for 30 min at […] 37° C., excitation 565 nm and emission 590 (Optima; BMG labtech). The slope of the kinetics for each well was calculated using MARS data analysis software (BMG labtech) and this value was used to deduce the IC50 value (Dotmatics). The ability of the inventive compounds to inhibit the amine oxidase activity of LOX and other family members is shown in Table 4.

Bovine LOX = molecular target: T3, Bovine LOX (Bos taurus, UniProt P33072); test: LOX inhibition, Amplex Red oxidation assay
T3 sequence (P33072 170-418): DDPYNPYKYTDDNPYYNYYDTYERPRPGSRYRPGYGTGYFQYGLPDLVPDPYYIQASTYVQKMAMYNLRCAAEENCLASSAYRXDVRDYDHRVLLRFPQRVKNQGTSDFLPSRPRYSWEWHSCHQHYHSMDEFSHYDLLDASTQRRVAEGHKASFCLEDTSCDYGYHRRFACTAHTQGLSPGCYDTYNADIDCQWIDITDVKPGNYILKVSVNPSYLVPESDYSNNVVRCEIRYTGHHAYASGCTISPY
Protocol: as §1

[1] = incubation with enzyme 30 min at 37° C, read-out: Human recombinant LOXL4 Activity IC50
[2] = incubation with enzyme 30 min at 37° C, read-out: Bovine LOX Activity IC50

Compound	pIC50 (recombinant human MAO-A)	pIC50 (Human recombinant LOXL4; [1])	pIC50 (Bovine LOX; [2])	pIC50 (Human recombinant LOXL4)	pIC50 (Bovine LOX)
CS(=O)(=O)c1ccc(COc2ccccc2S(=O)(=O)C(F)(F)/C(F)=C/CN)cc1 [Compound 10, (Z)-3,4,4-trifluoro-4-((2-((4-(methylsulfonyl)benzyl)oxy)phenyl)sulfonyl) but-2-en-1-amine]	5.33	7.00	5.57	–	–
N#CCCN [BAPN, β-aminopropionitrile, reference compound]	< 4.52	6.52	5.66	–	–
NC/C=C(\F)C(F)(F)S(=O)(=O)c1ccccc1 [Compound 1, (Z)-3,4,4-trifluoro-4-(phenylsulfonyl)but-2-en-1-amine]	–	–	–	6.52	5.43
CS(=O)(=O)c1cccc(CS(=O)(=O)C(F)(F)/C(F)=C/CN)c1 [Compound 17, (Z)-3,4,4-trifluoro-4-((3-(methylsulfonyl)benzyl)sulfonyl)but-2-en-1-amine]	–	6.70	5.46	–	–
NC/C=C(\F)C(F)(F)S(=O)(=O)C1CCCC1 [Compound 19, (Z)-4-(cyclopentylsulfony1)-3,4,4-trifluorobut-2-en-1-amine]	–	6.30	5.60	–	–

More lines, in order of rising pIC50 (Bovine LOX; [2]), values ahead:

pIC50 (recombinant human MAO-A)	pIC50 (Human recombinant LOXL4; [1])	pIC50 (Bovine LOX; [2])	Compound	pIC50 (Human recombinant LOXL4)	pIC50 (Bovine LOX)
–	6.22	5.10	NC/C=C(\F)C(F)(F)S(=O)(=O)c1cccc2cccnc12 [Compound 2, (Z)-3,4,4-trifluoro-4-(quinolin-8-ylsulfonyl)but-2-en-1-amine]	–	–
–	5.96	5.19	NC/C=C(\F)C(F)(F)[S+]([O-])c1ccccc1 (stereo not shown) [Compound 9, (Z)-3,4,4-trifluoro-4-(phenylsulfinyl)but-2-en-1-amine]	–	–
–	6.52	5.29	COc1cccc(S(=O)(=O)C(F)(F)/C(F)=C/CN)c1 [Compound 12, (Z)-3,4,4-trifluoro-4-((3-methoxyphenyl)sulfonyl)but-2-en-1-amine]	–	–
–	6.70	5.35	NC/C=C(\F)C(F)(F)S(=O)(=O)c1cccs1 [Compound 14, (Z)-3,4,4-trifluoro-4-(thiophen-2-ylsulfonyl)but-2-en-1-amine]	–	–
4.57	6.15	5.37	CNc1ccccc1S(=O)(=O)C(F)(F)/C(F)=C/CN [Compound 4, (Z)-2-((4-amino-1,1,2-trifluorobut-2-en-yl)sulfony1)-N-methylaniline]	–	–
4.69	–	5.42	Cc1ccccc1S(=O)(=O)C(F)(F)/C(F)=C/CN [Compound 5, (Z)-3,4,4-trifluoro-4-(o-tolylsulfonyl)but-2-en-1-amine]	–	–
< 4.52	6.52	5.46	Cc1ccc(S(=O)(=O)C(F)(F)/C(F)=C/CN)cc1 [Compound 6, (Z)-3,4,4-trifluoro-4-tosylbut-2-en-1-amine]	–	–
< 4.52	7.00	5.60	NC/C=C(\F)C(F)(F)S(=O)(=O)Cc1ccccc1 [Compound 8, (Z)-4-(benzylsulfony1)-3,4,4-trifluorobut-2-en-1-amine]	–	–
